Measurements published in patent publication US20250179103A1, “6-OXODECAHYDROPYRROLO[1,2-A][1,5]DIAZOCINE AND 6-OXODECAHYDRO-4H-PYRROLO[2,1-D][1,5]THIAZOCINE DERIVATIVES AS STAT3 AND STAT6 MODULATORS FOR THE TREATMENT OF CANCER AND INFLAMMATORY CONDITIONS” (Recludix Pharma, Inc., priority 2022, published 2025).

What follows are compounds tested on pY705-STAT3 in Peripheral Blood Mononuclear Cells (PBMC) (assay: MSD-pSTAT-PBMC Assay (pSTAT3, IL-6 stimulated)). Details: Homo sapiens, compound 3 hrs, then 10 ng/mL IL-6 for 10 min.
Format: cell-based, Human
Source text: Cryopreserved Peripheral Blood Mononuclear Cells (PBMC) are from AllCells. Recombinant Human IL-4 and IL-6 are from Peprotech. Mouse monoclonal anti-STAT3 antibody, rabbit monoclonal anti-pY705-STAT3 antibody, rabbit monoclonal Anti-pY641-STAT6 antibody, and lysis buffer are from Cell Signaling Technology (CST). Mouse monoclonal anti-STAT6 antibody is from BioLegend. Assay plates, blocker, and anti-rabbit secondary antibody are from Meso Scale Discovery (MSD).
Cryopreserved PBMCs were thawed out and allowed to recover overnight in IMDM+10% heat-inactivated FBS prior to plating 50,000 (STAT3) or 25,000 (STAT6) cells per well in 96-well U-bottom tissue culture plates. Cells were treated with compound for 3 hrs, then stimulated with 10 ng/mL IL-6 (STAT3) or 1 ng/mL IL-4 (STAT6) for 10 min. Cells were then spun down and washed with ice-cold PBS prior to lysing the cell pellet with 1× lysis buffer (CST) with 1×HALT protease and phosphatase inhibitor cocktail (Thermo). Lysates were transferred to and incubated overnight at 4° C. with shaking in QuickPlex 96-well high bind assay plates (MSD) pre-coated overnight with 30 μL per well of 0.6 μg/mL mouse monoclonal anti-STAT3 antibody (STAT3) or 2 μg/mL mouse monoclonal anti-STAT6 antibody (STAT6) in 1×PBS, and pre-blocked for 1 hour with 3% Blocker-A (MSD). Captured protein in the assay plates were then washed and probed with 25 μL per well of 0.25 μg/ml rabbit monoclonal anti-pY705-STAT3 antibody (STAT3) or […] rabbit monoclonal Anti-pY641-STAT6 antibody (STAT6) in 1% Blocker-A for 1 hour at room temperature with shaking, then washed and probed with 25 ul per well of 1 ug/ml Sulfo-TAG Labeled Goat Anti-Rabbit Antibody (MSD) in 1% Blocker-A for 1 hour at room temperature with shaking. Assay plates were then washed and 150 μL of 1× Read Buffer-T (MSD) was added to each well prior to reading on an SQ120 MSD Plate Reader. Assay signal from each sample was subtracted by the signal from unstimulated control wells and normalized to DMSO control wells. IC50 values were calculated using Graph Pad Prism Dose-Response Nonlinear Regression with variable slope. For both pSTAT3 and pSTAT6 A=≤100 nM; B=>100-1000 nM; C=>1000-3000 nM; and D=>3 μM.

SMILES	IC50 [nM]
CC(C)(C)C(=O)OCOP(=O)(OCOC(=O)C(C)(C)C)C(F)(F)c1ccc2sc(C(=O)N[C@H]3CN(CC(F)F)CC[C@H]4CC[C@@H](C(=O)N5C[C@@H](C#N)[C@H](c6ccccc6)C5)N4C3=O)cc2c1 (single isomer, unassigned) [Compound 348, ((((2-(((5S,8S,10aR)-8-((3S,4R or 3R,4S)-3-cyano-4-phenylpyrrolidine-1-carbonyl)-3-(2,2-difluoroethyl)-6-oxodecahydropyrrolo[1,2-a][1,5]diazocin-5-yl)carbamoyl)benzo[b]thiophen-5-yl)difluoromethyl)phosphoryl)bis (oxy)) bis(methylene) bis(2,2-dimethylpropanoate)]	≤ 100
CCCC(=O)SCCOP(=O)(OCCSC(=O)CCC)C(F)(F)c1ccc2sc(C(=O)N[C@H]3CN(C(C)=O)CC[C@H]4CC[C@@H](C(=O)N(C)c5ccccc5)N4C3=O)cc2c1 [Compound 280, S,S′-(((((2-(((5S,8S, 10aR)-3-acetyl-8-(methyl (phenyl)carbamoyl)-6-oxodecahydro-pyrrolo[1,2-a][1,5]diazocin-5-yl)carbamoyl)benzo[b]thiophen-5-yl)difluoro-methyl)phos-phoryl)bis (oxy))bis (ethane-2,1-diyl))di-butanethioate]	1000 to 3000
CC(C)OC(=O)OCOP(=O)(Cc1ccc2sc(C(=O)N[C@H]3CN(Cc4ccn5ccnc5c4)CC[C@H]4CC[C@@H](C(=O)N5CC(c6cccnc6)C5)N4C3=O)cc2c1)OCOC(=O)OC(C)C [Compound 338, ((((2-(((5S,8S,10aR)-3-(imidazo[1,2-a]pyridin-7-ylmethyl)-6-oxo-8-(3-(pyridin-3-yl)azetidine-1-carbonyl)decahydropyrrolo[1,2-a][1,5]diazocin-5-yl)carbamoyl)benzo[b]thiophen-5-yl)methyl)phosphoryl)bis (oxy))bis(methylene)diisopropylbis(carbonate)]	100 to 1000
CC(C)OC(=O)[C@H](C)NP(=O)(Cc1ccc2sc(C(=O)N[C@H]3CN(Cc4ccn5ccnc5c4)CC[C@H]4CC[C@@H](C(=O)N5CC(c6cccnc6)C5)N4C3=O)cc2c1)NCc1ccccc1 (stereo partly drawn) [Compound 333]	> 3000

What follows are compounds tested on pY641-STAT6 in Peripheral Blood Mononuclear Cells (PBMC) (assay: MSD-pSTAT-PBMC Assay (pSTAT6, IL-4 stimulated)). Details: Homo sapiens, compound 3 hrs, then 1 ng/mL IL-4 for 10 min.
Format: cell-based, Human
How it was run: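 Human PBMCs were preincubated 3 h with compound, then stimulated 10 min with 10 ng/mL IL-6 (pY705-STAT3) or 1 ng/mL IL-4 (pY641-STAT6). Lysates were read by MSD sandwich immunoassay, capturing total STAT and detecting phospho-STAT. Signal was unstimulated-subtracted and DMSO-normalised, with variable-slope IC50 binned A–D.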

SMILES	IC50 [nM]
CC(C)(C)C(=O)OCOP(=O)(OCOC(=O)C(C)(C)C)C(F)(F)c1ccc2sc(C(=O)N[C@H]3CN(CC(F)F)CC[C@H]4CC[C@@H](C(=O)N5C[C@@H](C#N)[C@H](c6ccccc6)C5)N4C3=O)cc2c1 (single isomer, unassigned) [Compound 348, ((((2-(((5S,8S,10aR)-8-((3S,4R or 3R,4S)-3-cyano-4-phenylpyrrolidine-1-carbonyl)-3-(2,2-difluoroethyl)-6-oxodecahydropyrrolo[1,2-a][1,5]diazocin-5-yl)carbamoyl)benzo[b]thiophen-5-yl)difluoromethyl)phosphoryl)bis (oxy)) bis(methylene) bis(2,2-dimethylpropanoate)]	≤ 100
CCCC(=O)SCCOP(=O)(OCCSC(=O)CCC)C(F)(F)c1ccc2sc(C(=O)N[C@H]3CN(C(C)=O)CC[C@H]4CC[C@@H](C(=O)N(C)c5ccccc5)N4C3=O)cc2c1 [Compound 280, S,S′-(((((2-(((5S,8S, 10aR)-3-acetyl-8-(methyl (phenyl)carbamoyl)-6-oxodecahydro-pyrrolo[1,2-a][1,5]diazocin-5-yl)carbamoyl)benzo[b]thiophen-5-yl)difluoro-methyl)phos-phoryl)bis (oxy))bis (ethane-2,1-diyl))di-butanethioate]	100 to 1000
Cc1ccc2onc(C(=O)N3CC[C@H]4CC[C@@H](C(=O)N5C[C@@H](c6cc[nH]c(=O)c6)CC56CC6)N4C(=O)[C@@H](NC(=O)c4ccc5ccc(C(F)(F)P(=O)(OCCSC(=O)C(C)(C)C)OCCSC(=O)C(C)(C)C)cc5c4)C3)c2c1 [Compound 435, S,S′-((((difluoro(7 (((5S,8S,10aR)-3-(5-methylbenzo [d]isoxazole-3-carbonyl)-6-oxo-8-((R)-6-(2-oxo-1,2-dihydro-pyridin-4-yl)-4-azaspiro[2.4]heptane-4-carbonyl)decahydro-pyrrolo[1,2-a] [1,5]diazocin-5-yl)carbamoyl)naphthalen-2-yl)methyl)phosphoryl)bis(oxy))bis (ethane-2,1-diyl))bis(2,2-dimethyl-propanethioate)]	≤ 100
Cc1ccc2[nH]nc(C(=O)N3CC[C@H]4CC[C@@H](C(=O)N5CC(c6cc[nH]c(=O)c6)CC56CC6)N4C(=O)[C@@H](NC(=O)c4ccc5ccc(C(F)(F)P(=O)(OCCSC(=O)C(C)(C)C)OCCSC(=O)C(C)(C)C)cc5c4)C3)c2c1 (stereo partly drawn) [Compound 432, S,S′-((((difluoro(7 (((5S,8S,10aR)-3-(5-methyl-1H-indazole-3-carbonyl)-6-oxo-8-(6-(2-oxo-1,2-dihydro-pyridin-4-yl)-4-azaspiro [2.4]heptane-4-carbonyl)dec-ahydropyrrolo [1,2a][1,5]diazocin-5-yl)carbamoyl)naphthalen-2-yl)methyl)phosphoryl)bis(oxy))bis (ethane-2,1-diyl))bis(2,2-dimethylpro-panethioate)]	≤ 100
CC(=O)N1CC[C@H]2CC[C@@H](C(=O)N3C[C@H](c4cc[nH]c(=O)c4)[C@@H](C#N)C3)N2C(=O)[C@@H](NC(=O)c2ccc3ccc(C(F)(F)P(=O)(OCCSC(=O)CC(C)C)OCOC(=O)OC(C)C)cc3c2)C1 (single isomer, unassigned) [Compound 302, S-(2-((((7-(((5S,8S, 10aR)-3-acetyl-8-((3R,4S or 3S,4R)-3-cyano-4-(2-oxo-1,2-dihydro-pyridin-4-yl)pyrrolidine-1-carbonyl)-6-oxodecahydro-pyrrolo[1,2-a][1,5]diazocin-5-yl)carbamoyl)naphthalen-2-yl)difluoro-methyl)(((iso-propoxy-carbonyl)oxy)methoxy)phos-phoryl)oxy)ethyl)3-methylbutane-thioate]	100 to 1000
CCCOC(=O)[C@H](C)NP(=O)(Oc1ccccc1)[C@@H](F)c1ccc2ccc(C(=O)N[C@H]3CN(C(=O)c4noc5ccc(C)cc45)CC[C@H]4CC[C@@H](C(=O)N5CC6CCC(C5)O6)N4C3=O)cc2c1 (stereo partly drawn) [Compound 416, propyl (((1R)-(7-(((5S,8S,10aR)-8-(8-oxa-3-azabicyclo [3.2.1]octane-3-carbonyl)-3-(5-methylbenzo [d]isoxazole-3-carbonyl)-6-oxodeca-hydropyrrolo [1,2-a][1,5]diazocin-5-yl)carbamoyl)naphthalen-2-yl)fluoromethyl) (phenoxy)phosphoryl)-L-alaninate]	≤ 100
CCCOC(=O)[C@H](C)NP(=O)(Oc1ccccc1)C(F)c1ccc2ccc(C(=O)N[C@H]3CN(C(=O)c4noc5ccc(OC)cc45)CC[C@H]4CC[C@@H](C(=O)N5CCOCC5)N4C3=O)cc2c1 (stereo partly drawn) [Compound 428, propyl ((fluoro(7-(((5S,8S,10aR)-3-(5-methoxybenzo [d]isoxazole-3-carbonyl)-8-(morpholine-4-carbonyl)-6-oxodecahydro-pyrrolo [1,2-a][1,5]diazocin-5-yl)carbamoyl)naphthalen-2-yl)methyl) (phenoxy)phosphoryl)-L-alaninate]	100 to 1000
CCCOC(=O)[C@H](C)NP(=O)(Oc1ccccc1)[C@@H](F)c1ccc2ccc(C(=O)N[C@H]3CN(C(=O)c4noc5ccc(C)cc45)CC[C@H]4CC[C@@H](C(=O)N5C[C@H](c6ccn(C)c(=O)c6)CC56CC6)N4C3=O)cc2c1 (stereo partly drawn) [Compound 421, propyl (((R)-fluoro(7-(((5S,8S,10aR)-8-((S)-6-(1-methyl-2-oxo-1,2-dihydropyridin-4-yl)-4-azaspiro [2.4]heptane-4-carbonyl)-3-(5-methylbenzo [d]isoxazole-3-carbonyl)-6-oxodeca-hydropyrrolo [1,2-a] [1,5]diazocin-5-yl)carbamoyl)naphthalen-2-yl)methyl) (phenoxy)phosphoryl)-L-alaninate]	≤ 100
Cc1ccc2onc(C(=O)N3CC[C@H]4CC[C@@H](C(=O)N5C[C@@H](c6ccn(C)c(=O)c6)CC56CC6)N4C(=O)[C@@H](NC(=O)c4ccc5ccc(C(F)(F)P(=O)(OCCSC(=O)C(C)(C)C)OCCSC(=O)C(C)(C)C)cc5c4)C3)c2c1 [Compound 436, S,S′-((((difluoro(7-(((5S,8S,10aR)-8-((R)-6-(1-methyl-2-oxo-1,2-dihydropyridin-4-yl)-4-azaspiro[2.4]heptane-4-carbonyl)-3-(5-methylbenzo [d]isoxazole-3-carbonyl)-6-oxodeca-hydropyrrolo [1,2-a][1,5]diazocin-5-yl)carbamoyl)naphthalen-2-yl)methyl)phosphoryl)bis (oxy))bis (ethane-2,1-diyl))bis(2,2-dimethyl-propanethioate)]	≤ 100
Cc1ccc2onc(C(=O)N3CC[C@H]4CC[C@@H](C(=O)N5C[C@@H](C#N)[C@H](c6ccccc6)C5)N4C(=O)[C@@H](NC(=O)c4ccc5ccc(C(F)(F)P(=O)(OCCSC(=O)CC(C)C)OCCSC(=O)CC(C)C)cc5c4)C3)c2c1 (single isomer, unassigned) [Compound 433]	≤ 100
CCCOC(=O)[C@H](C)NP(=O)(Oc1ccccc1)C(F)c1ccc2ccc(C(=O)N[C@H]3CN(C(=O)c4noc5cc(OC)ccc45)CC[C@H]4CC[C@@H](C(=O)N5CCOCC5)N4C3=O)cc2c1 (stereo partly drawn) [Compound 424, propyl ((fluoro(7-(((5S,8S,10aR)-3-(6-methoxybenzo[d]isoxazole-3-carbonyl)-8-(morpholine-4-carbonyl)-6-oxodeca-hydropyrrolo [1,2-a][1,5]diazocin-5-yl)carbamoyl)naphthalen-2-yl)methyl) (phenoxy)phosphoryl)-L-alaninate]	1000 to 3000
